Laboratory results reported in patent US5952189A (priority 1997, dated 1999).
“Also recorded” adds a separate entry of the source. Like-named read-outs stand apart in the source and are kept apart here. Starred links: 1 amine or outer side, 2 acyl side, 3 side chain; linkers in the order of their positions; H or OH if unused. Positions of bridges follow the written chain, without caps; N, C: chain ends. Non-standard residues stand in square brackets, D forms with d. Residues, ends and D or L forms follow the SMILES beside them. Chains are numbered I, II in the order given. Actinocin(9to1) = Cc1c2oc3c(C)ccc(C(=O)[*:1])c3nc-2c(C(=O)[*:2])c(N)c1=O; NMeV = CN[C@H](C(=O)O)C(C)C; Sar = CNCC(=O)O

Assays:
U937 cells [1] = assay: cells; assay type: cell-based, human
BT-20 = assay type: cell-based, human; conditions: for % DNA fragmentation: BT-20, inhibitor 100 μM, UV 0.5 J/cm^2, 8 h, no inhibitor 44 ± 3.6; for Effect on UV-induced DNA fragmentation: summary of Table 2 (BT-20, 3T3, HL-60)
3T3 = assay: Inhibition of UV-induced DNA fragmentation in 3T3 cells; assay type: cell-based, murine; conditions: inhibitor 100 μM, UV 0.5 J/cm^2, 8 h, no inhibitor 38 ± 1.9
Protocol: To determine if these findings were unique to U937 or if other cell lines also require protease activity to undergo apoptosis, the effects of several inhibitors on apoptosis induced by UV light in the human mammary carcinoma, BT-20, the murine fibroblast cell line, 3T3, and the human myeloid leukemia, HL-60 were tested. For the BT-20 and 3T3 cells, target cells were pretreated for one hour (with or without inhibitors as indicated in the table) and exposed to UV light at 0.5 J/cm^2 and then incubated for eight hours prior to assessing DNA fragmentation. HL-60 cells were pretreated for one hour (with or without inhibitors as indicated in the table) and exposed to UV at 0.2 J/cm^2 and then incubated for two hours prior to assessing DNA fragmentation.
DNA fragmentation assays were carried out according to the protocol of Wright S. C., et al. (1,992) J. Cell. Biochem. 48, 344-355. Target cells were labeled with ^3 H-thymidine and plated in triplicate in flat bottom microtiter plates. Cells were incubated for the indicated length of time for each experiment in the presence of TNF or various inhibitors. In some experiments, cells were treated with UV light at 245 nm using a UV Crosslinker (Fisher Scientific). Assays were harvested and counted on a Packard matrix 96 beta counter. Percent DNA fragmentation was calculated as for the nuclear assay described in Example 3. In assays to test the effects of various inhibitors, the pH of extra wells containing assay buffer, target cells, and each inhibitor was always checked at the beginning and end of each assay to assure that the pH remained at 7.5.

isolated U937 nuclei [2] = assay: Gel electrophoresis of DNA fragmentation in isolated U937 nuclei; assay type: cell-based, human
isolated U937 nuclei [3] = assay: DNA fragmentation assay using isolated U937 nuclei; assay type: cell-based, human; conditions: concentrations as high as 0.1 mg/ml (FIG. 6A)
Protocol: U937 cells were labeled with ^3 H-thymidine by culturing overnight with isotope at 0.5 μCi/ml. The cells were pelleted, washed once, and the cytoplasmic membrane lysed by resuspending the cells in assay buffer (50 mM Tris, 250 mM sucrose 10 mM MgSO4, pH 7.5) plus 0.02% NP-40. Nuclei were then pelleted and resuspended in assay buffer at 1×10^6 /ml. The assay was set up in triplicate in flat bottom microtiter plates under sterile conditions. Nuclei (0.05 ml) were mixed with 0.05 ml of sample diluted in 50 mM Tris pH 7.5 or buffer alone to determine total counts. Plates were incubated for 5 h at 37° C. and then harvested by the addition of 0.1 ml of harvesting buffer (10 mM Tris, 10 mM EDTA, 0.3% Triton X-100, pH 7.5). Plates were harvested by filtration onto glass fiber paper and counted on a Packard Matrix 96 beta counter. Percent DNA fragmentation was calculated as follows: […]

U937 cells [4] = conditions: cited from earlier work
[5] = tested on: LPS-induced hepatotoxicity
[6] = tested on: TNF-induced hepatocyte apoptosis; assay: TNF-induced hepatotoxicity in mice (serum transaminases); assay type: in vivo, Balb/c mice; conditions: Actinomycin D 15 mg alone, 12 h
Protocol: In this example the concept that a protease inhibitor such as DK120 may attenuate inappropriate apoptosis that causes tissue damage in systemic inflammatory response syndrome (SIRS) was tested. TNF-induced hepatocyte apoptosis in mice was performed as described by Leist et al. ((1995) J. Immunol. 154:1778-1786). Briefly, Balb/c mice were injected ip with […] murine TNF combined with […] Actinomycin D/mouse. Twelve h later, mice were anesthetized and bled from the heart to measure serum transaminase levels, which are standard clinically used indicators of liver damage. Mice that were treated with protease inhibitors were injected ip with these compounds 30 min. prior to TNF. Alanine aminotransferase (ALT) and aspartate aminotransferase (AST) were assayed using a commercially available kit (Sigma). […] However, treatment with DK120 caused a doss-dependent decrease in serum transaminase levels. […] However, a drug that nonspecifically blocks all apoptotic pathways that normally function to maintain homeostasis may not be clinically desirable. Subsequent studies were performed to determine if DK120 could also suppress hepatocyte apoptosis in response to a different stimulus.
^1 Mice (2 for each treatment) were injected ip +/- DK120 30 min prio
to TNF and Actinomycin D. Twelve h later serum transaminase levels were
To further explore the specificity of DK120 attenuation of TNF-induced hepatotoxicity, several compounds were tested that were found previously not to inhibit apoptotic protease proteolytic activity as measured against a synthetic substrate (data not shown). […] Therefore, the protection mediated by DK120 is not a property of any boron-containing molecule.
^1 Mice (3 for each treatment) were injected ip +/- the inhibitors 30
min prior to TNF and Actinomycin D. Twelve h later serum transaminase

## CC(=O)N[C@@H](CC(C)C)C(=O)N[C@@H](CC(C)C)C(=O)N[C@H](C=O)CCCNC(=N)N [Leupeptin]
U937 cells [1]; U937 cells, result in words
  Effect on DNA fragmentation induced by TNF or UV light: without effect
BT-20
  % DNA fragmentation: 42 ± 5.6%
  Effect on UV-induced DNA fragmentation: inactive
3T3
  % DNA fragmentation: 36 ± 2.6%

## N=C(N)c1ccccc1 [Benzamidine]
U937 cells [1]; U937 cells, result in words
  Effect on DNA fragmentation induced by TNF or UV light: without effect

## α1-anti-protease: α1-anti-protease, protease inhibitor
Isolated U937 nuclei [2]; FIG. 5, lane 4
  DNA of nuclei treated with compound alone, gel: remained in high molecular weight form
Isolated U937 nuclei [2]; protease pretreated 1 hr (FIG. 5, lane 3)
  Effect on protease-induced DNA fragmentation, gel: DNA fragmentation was abolished

## COC(=O)[C@H](CCCNC(=N)N)NS(=O)(=O)c1ccc(C)cc1 [TAME, p-toluene-sulfonyl-L-arginine methyl ester]
U937 cells [1]; U937 cells, result in words
  Effect on DNA fragmentation induced by TNF or UV light: without effect

## CC(=O)NC(Cc1ccccc1)C(=O)Oc1ccc2ccccc2c1 (racemic) [APNE, N-acetyl-DL-Phenylalanine β-naphthyl ester]
U937 cells [1]; Homo sapiens, U-937, read-out: IC50 (Active Concentration), TNF and UV-light induced apoptosis
  IC50: 40 µM
U937 cells [1]; U937 cells, result in words
  Effect on DNA fragmentation induced by TNF or UV light: blocked DNA fragmentation

## trypsin
Isolated U937 nuclei [3]
  DNA fragmentation in isolated nuclei by commercial proteases: completely inactive

## NC(=O)c1cccc(N)c1 [3-aminobenzamide]
U937 cells [4]
  Effect on apoptosis: blocked

## CCN1C(=O)C=CC1=O [N-ethylmaleimide]
U937 cells [1]; U937 cells, result in words
  Effect on DNA fragmentation induced by TNF or UV light: inactive

## O=S(=O)(F)Cc1ccccc1 [PMSF, phenylmethylsulfonylfluoride]
U937 cells [1]
  Effect on DNA fragmentation induced by TNF or UV light: not inhibited; also recorded: without effect
  Inactive Compounds, Highest Concentration Tested (highest nontoxic concentration, inactive): 100 µM

## N[C@H]1C(O)O[C@H](CO)[C@H](O)[C@@H]1O (stereo partly shown) [Gln, galactosamine]
[5]; Gln 15 mg alone, survivors
  ALT: 137 +/- 33 U/ml
  AST: 67 +/- 4.6 U/ml
[5]; mouse, in vivo
  % Mortality: 0%

## CC(C)CC(NC(=O)C1OC1C(=O)O)C(=O)NCCCCN=C(N)N (stereo not shown) [E64]
U937 cells [1]; U937 cells, result in words
  Effect on DNA fragmentation induced by TNF or UV light: inactive
BT-20
  % DNA fragmentation: 41 ± 5.6%
  Effect on UV-induced DNA fragmentation: inactive
3T3
  % DNA fragmentation: 42 ± 2.7%

## Cc1c2oc3c(C)ccc(C(=O)N[C@@H]4C(=O)N[C@H](C(C)C)C(=O)N5CCC[C@H]5C(=O)N(C)CC(=O)N(C)[C@@H](C(C)C)C(=O)O[C@@H]4C)c3nc-2c(C(=O)N[C@@H]2C(=O)N[C@H](C(C)C)C(=O)N3CCC[C@H]3C(=O)N(C)CC(=O)N(C)[C@@H](C(C)C)C(=O)O[C@@H]2C)c(N)c1=O [Actinomycin D] (I: T[dV]P[Sar][NMeV] / II: T[dV]P[Sar][NMeV]; ester I:1-I:C, II:1-II:C; linker I:N-II:N via Actinocin(9to1))
[6]; Table 7, none 39
  ALT: 70 U/ml
[6]; Table 7, none 51
  AST: 47 U/ml
[6]; Table 10 Exp. #1
  ALT: 71 +/- 8.5 U/ml
[6]; Table 10 Exp. #2
  ALT: 139 +/- 29 U/ml

## Cc1ccc(S(=O)(=O)N[C@@H](CCCCN)C(=O)CCl)cc1 [TLCK, N-α-p-tosyl-L-lysine-chloromethyl ketone]
U937 cells [1]; U937 cells, result in words
  Effect on DNA fragmentation induced by TNF or UV light: without effect

## CC(C)C[C@H](NC(=O)[C@@H](NC(=O)N[C@@H](Cc1ccccc1)C(=O)O)[C@@H]1CCN=C(N)N1)C(=O)N[C@H](C=O)Cc1ccccc1 [Chymostatin]
U937 cells [1]; U937 cells, result in words
  Effect on DNA fragmentation induced by TNF or UV light: without effect

## CC(C)C[C@H](NC(=O)[C@@H](O)[C@H](N)Cc1ccccc1)C(=O)O [Bestatin]
U937 cells [1]; U937 cells, result in words
  Effect on DNA fragmentation induced by TNF or UV light: inactive

B1: leukocyte elastase: human leukocyte elastase obtained from Calbiochem (protein, UniProt P08246 30-267, looked up)
Neutrophil elastase: IVGGRRARPHAWPFMVSLQLRGGHFCGATLIAPNFVMSAAHCVANVNVRAVRVVLGAHNLSRREPTRQVFAVQRIFENGYDPVNLLNDIVILQLNGSATINANVQVAQLPAQGRRLGNGVQCLAMGWGLLGRNRGIASVLQELNVTVVTSLCRRSNVCTLVRGRQAGVCFGDSGSPLVCNGLIHGIASFVRGGCASGLYPDAFAPVAQFVNWIDSIIQRSEDNPCPHPRDPDPASRTH
Isolated U937 nuclei [3]
  DNA fragmentation in isolated nuclei by commercial proteases: cannot induce DNA fragmentation in U937 nuclei
Isolated U937 nuclei [3]; listed as elastase
  DNA fragmentation in isolated nuclei by commercial proteases: completely inactive
